Patent US20180370927A1, “MICROBIOCIDAL OXADIAZOLE DERIVATIVES” (SYNGENTA PARTICIPATIONS AG, priority 2015, published 2018)

Assays:
[1] = tested on: Phakopsora pachyrhizi; experiment: Phakopsora pachyrhizi / soybean / leaf disc preventative (Asian soybean rust); format: in vivo; settings: foliar, 200 ppm in the applied formulation, soybean leaf disks, assessed 12 to 14 days after application, read-out: disease control compared to untreated control leaf disks
In short: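 Soybean leaf discs on water agar were sprayed with formulated compound diluted in water, then inoculated one day later with spore suspension on the lower leaf surface. Held 24-36 h dark at 20° C., 75% RH, then 12 h light/day; percent disease control versus untreated scored 12 to 14 days after application.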

[2] = tested on: Puccinia recondita f. Sp. Tritici; experiment: Puccinia recondita f. sp. tritici / wheat / leaf disc preventative (brown rust); format: in vivo; settings: foliar, 200 ppm in the applied formulation, wheat leaf segments, preventative, assessed 7 to 9 days after application, read-out: disease control compared to untreated control leaf disks
In short: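 Wheat cv. Kanzler leaf segments on agar sprayed with formulated compound in water, inoculated with rust spores 1 day later. Incubated at 19° C, 75% rh, 12 h light/12 h dark; percent disease control versus untreated scored 7 to 9 days after application; tested at 200 ppm.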

[3] = tested on: Puccinia recondita f. Sp. Tritici; experiment: Puccinia recondita f. sp. tritici / wheat / leaf disc curative (brown rust); format: in vivo; settings: foliar, 200 ppm in the applied formulation, wheat leaf segments, curative (applied 1 day after inoculation), assessed 6 to 8 days after application, read-out: disease control compared to untreated control leaf disks
In short: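 Curative treatment: formulated compound in water was applied 1 day post-inoculation to spore-inoculated wheat cv. Kanzler segments held on agar. Segments stayed at 19° C and 75% relative humidity (12 h photoperiod after application), and disease control relative to untreated checks was assessed 6 to 8 days later.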

[4] = tested on: Glomerella lacenarium (Colletotrichum lacenarium); experiment: Glomerella lacenarium (Colletotrichum lacenarium) liquid culture / cucumber / preventative (anthracnose); format: cell-based; settings: 20 ppm in the applied formulation, liquid culture in PDB, 24° C., 3 to 4 days after application, read-out: disease control (inhibition of growth, photometric) compared to untreated control
In short: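 At 20 ppm in the applied formulation, compounds were mixed with fungal spores in potato dextrose broth and held at 24° C. After 3–4 days, photometric growth measurement gave percent antifungal activity relative to untreated control.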

CCC(C)N(Cc1ccc(-c2noc(C(F)(F)F)n2)cc1)C(=O)C(C)=O (stereo not drawn) [Compound 1.12, 2-oxo-N-sec-butyl-N-[[4-[5-(trifluoromethyl)-1,2,4-oxadiazol-3-yl]phenyl]methyl]propanamide]
≥ 80%: pest or weed control at 200 ppm [1] | pest or weed control at 200 ppm [2] | pest or weed control at 200 ppm [3] | inhibition at 20 ppm [4]

CONC(=O)C(=O)NCc1ccc(-c2noc(C(F)(F)F)n2)cc1 [Compound 4.58, N′-methoxy-N-[[4-[5-(trifluoromethyl)-1,2,4-oxadiazol-3-yl]phenyl]methyl] oxamide]
≥ 80%: pest or weed control at 200 ppm [1] | pest or weed control at 200 ppm [2] | pest or weed control at 200 ppm [3] | inhibition at 20 ppm [4]

CON(C)C(=O)C(=O)N(Cc1ccc(-c2noc(C(F)(F)F)n2)cc1)OC [Compound 4.65, N,N′-dimethoxy-N-methyl-N′-[[4-[5-(trifluoromethyl)-1,2,4-oxadiazol-3-yl]phenyl]methyl] oxamide]
≥ 80%: pest or weed control at 200 ppm [1] | pest or weed control at 200 ppm [2] | pest or weed control at 200 ppm [3] | inhibition at 20 ppm [4]

CCC(=O)C(=O)N(CCO)Cc1ccc(-c2noc(C(F)(F)F)n2)cc1 [Compound 1.33, N-(2-hydroxyethyl)-2-oxo-N-[[4-[5-(trifluoromethyl)-1,2,4-oxadiazol-3-yl]phenyl]methyl]butanamide]
≥ 80%: pest or weed control at 200 ppm [1] | pest or weed control at 200 ppm [2] | pest or weed control at 200 ppm [3] | inhibition at 20 ppm [4]

CC(C)C(=O)C(=O)N(C)Cc1ccc(-c2noc(C(F)(F)F)n2)cc1 [Compound 1.95, N,3-dimethyl-2-oxo-N-[[4-[5-(trifluoromethyl)-1,2,4-oxadiazol-3-yl]phenyl]methyl]butanamide]
≥ 80%: pest or weed control at 200 ppm [1] | pest or weed control at 200 ppm [2] | pest or weed control at 200 ppm [3] | inhibition at 20 ppm [4]

CCN(Cc1ccc(-c2noc(C(F)(F)F)n2)cc1)C(=O)C(=O)N(C)OC [Compound 4.106, N′-ethyl-N-methoxy-N-methyl-N′-[[4-[5-(trifluoromethyl)-1,2,4-oxadiazol-3-yl]phenyl]methyl] oxamide]
≥ 80%: pest or weed control at 200 ppm [1] | pest or weed control at 200 ppm [2] | pest or weed control at 200 ppm [3] | inhibition at 20 ppm [4]

CCON(Cc1ccc(-c2noc(C(F)(F)F)n2)cc1)C(=O)C(N)=O [Compound 4.86, N′-ethoxy-N′-[[4-[5-(trifluoromethyl)-1,2,4-oxadiazol-3-yl]phenyl]methyl] oxarnide]
≥ 80%: pest or weed control at 200 ppm [1] | pest or weed control at 200 ppm [2] | pest or weed control at 200 ppm [3] | inhibition at 20 ppm [4]

CC(C)CC(=O)C(=O)NCc1ccc(-c2noc(C(F)(F)F)n2)c(F)c1F [Compound 1.47, N-[[2,3-difluoro-4-[5-(trifluoromethyl)-1,2,4-oxadiazol-3-yl]phenyl]methyl]-4-methyl-2-oxo-pentanamide]
≥ 80%: pest or weed control at 200 ppm [1] | pest or weed control at 200 ppm [2] | pest or weed control at 200 ppm [3] | inhibition at 20 ppm [4]

CO/N=C(/C)C(=O)N(Cc1ccc(-c2noc(C(F)(F)F)n2)cc1)OC [Compound 2.11, (2Z)-N-methoxy-2-methoxyimino-N-[[4-[5-(trifluoromethyl)-1,2,4-oxadiazol-3-yl]phenyl]methyl] propanamide]
≥ 80%: pest or weed control at 200 ppm [1] | pest or weed control at 200 ppm [2] | pest or weed control at 200 ppm [3] | inhibition at 20 ppm [4]

O=C(NCc1ccc(-c2noc(C(F)(F)F)n2)cc1)C(=O)N1CCOCC1 [Compound 4.59, 2-morpholino-2-oxo-N-[[4-[5-(trifluoromethyl)-1,2,4-oxadiazol-3-yl]phenyl]methyl] acetamide]
≥ 80%: pest or weed control at 200 ppm [1] | pest or weed control at 200 ppm [2] | pest or weed control at 200 ppm [3] | inhibition at 20 ppm [4]

CCC(=O)C(=O)NCc1ccc(-c2noc(C(F)(F)F)n2)c(F)c1F [Compound 1.80, N-[[2,3-difluoro-4-[5-(trifluoromethyl)-1,2,4-oxadiazol-3-yl]phenyl]methyl]-2-oxo-butanamide]
≥ 80%: pest or weed control at 200 ppm [1] | pest or weed control at 200 ppm [2] | pest or weed control at 200 ppm [3] | inhibition at 20 ppm [4]

CCC(=O)C(=O)NCc1ccc(-c2noc(C(F)(F)F)n2)cc1F [Compound 1.41, N-[[2-fluoro-4-[5-(trifluoromethyl)-1,2,4-oxadiazol-3-yl]phenyl]methyl]-2-oxo-butanamide]
≥ 80%: pest or weed control at 200 ppm [1] | pest or weed control at 200 ppm [2] | pest or weed control at 200 ppm [3] | inhibition at 20 ppm [4]

CCC(=O)C(=O)N(Cc1ccc(-c2noc(C(F)(F)F)n2)cc1)C1CC1 [Compound 1.100, N-cyclopropyl-2-oxo-N-[[4-[5-(trifluoromethyl)-1,2,4-oxadiazol-3-yl]phenyl]methyl]butanamide]
≥ 80%: pest or weed control at 200 ppm [1] | pest or weed control at 200 ppm [2] | pest or weed control at 200 ppm [3] | inhibition at 20 ppm [4]

CCC(=O)C(=O)N(CC)Cc1ccc(-c2noc(C(F)(F)F)n2)cc1 [Compound 1.99, N-ethyl-2-oxo-N-[[4-[5-(trifluoromethyl)-1,2,4-oxadiazol-3-yl]phenyl]methyl]butanamide]
≥ 80%: pest or weed control at 200 ppm [1] | pest or weed control at 200 ppm [2] | pest or weed control at 200 ppm [3] | inhibition at 20 ppm [4]

CCN(CC)C(=O)C(=O)NCc1ccc(-c2noc(C(F)(F)F)n2)cc1 [Compound 4.52, N′,N′-diethyl-N-[[4-[5-(trifluoromethyl)-1,2,4-oxadiazol-3-yl]phenyl]methyl] oxamide]
≥ 80%: pest or weed control at 200 ppm [1] | pest or weed control at 200 ppm [2] | pest or weed control at 200 ppm [3] | inhibition at 20 ppm [4]

CCCC(=O)C(=O)N(C)Cc1ccc(-c2noc(C(F)(F)F)n2)cc1 [Compound 1.21, N-methyl-2-oxo-N-[[4-[5-(trifluoromethyl)-1,2,4-oxadiazol-3-yl]phenyl]methyl]pentanamide]
≥ 80%: pest or weed control at 200 ppm [1] | pest or weed control at 200 ppm [2] | pest or weed control at 200 ppm [3] | inhibition at 20 ppm [4]

CCC(=O)C(=O)N(Cc1ccc(-c2noc(C(F)(F)F)n2)cc1)OC [Compound 1.89, N-methoxy-2-oxo-N-[[4-[5-(trifluoromethyl)-1,2,4-oxadiazol-3-yl]phenyl]methyl]butanamide]
≥ 80%: pest or weed control at 200 ppm [1] | pest or weed control at 200 ppm [2] | pest or weed control at 200 ppm [3] | inhibition at 20 ppm [4]

CCN(Cc1ccc(-c2noc(C(F)(F)F)n2)cc1)C(=O)C(=O)N(C)C [Compound 4.27, N′-ethyl-N,N-dimethyl-N′-[[4-[5-(trifluoromethyl)-1,2,4-oxadiazol-3-yl]phenyl]methyl] oxamide]
≥ 80%: pest or weed control at 200 ppm [1] | pest or weed control at 200 ppm [2] | pest or weed control at 200 ppm [3] | inhibition at 20 ppm [4]

Cc1cc(-c2noc(C(F)(F)F)n2)ccc1CNC(=O)C(=O)N(C)C [Compound 4.97, N′,N′-dimethyl-N-[[2-methyl-4-[5-(trifluoromethyl)-1,2,4-oxadiazol-3-yl]phenyl]methyl] oxamide]
≥ 80%: pest or weed control at 200 ppm [1] | pest or weed control at 200 ppm [2] | pest or weed control at 200 ppm [3] | inhibition at 20 ppm [4]

CC(C)(C)C(=O)C(=O)NCc1ccc(-c2noc(C(F)(F)F)n2)c(F)c1 [Compound 1.45, N-[[3-fluoro-4-[5-(trifluoromethyl)-1,2,4-oxadiazol-3-yl]phenyl]methyl]-3,3-dimethyl-2-oxo-butanamide]
≥ 80%: pest or weed control at 200 ppm [1] | pest or weed control at 200 ppm [2] | pest or weed control at 200 ppm [3] | inhibition at 20 ppm [4]

CCC(=O)C(=O)N(Cc1ccc(-c2noc(C(F)(F)F)n2)cc1)C(C)C [Compound 1.32]
≥ 80%: pest or weed control at 200 ppm [1] | pest or weed control at 200 ppm [2] | pest or weed control at 200 ppm [3] | inhibition at 20 ppm [4]

NC(=O)C(=O)N(Cc1ccc(-c2noc(C(F)(F)F)n2)cc1)C1COC1 [Compound 4.90, N′-(oxetan-3-yl)-N′-[[4-[5-(trifluoromethyl)-1,2,4-oxadiazol-3-yl]phenyl]methyl] oxamide]
≥ 80%: pest or weed control at 200 ppm [1] | pest or weed control at 200 ppm [2] | pest or weed control at 200 ppm [3] | inhibition at 20 ppm [4]

CCC(=O)C(=O)NCc1ccc(-c2noc(C(F)(F)F)n2)cc1 [Compound 1.53, 2-oxo-N-[[4-[5-(trifluoromethyl)-1,2,4-oxadiazol-3-yl]phenyl]methyl]butanamide]
≥ 80%: pest or weed control at 200 ppm [1] | pest or weed control at 200 ppm [2] | pest or weed control at 200 ppm [3] | inhibition at 20 ppm [4]

C=CCN(Cc1ccc(-c2noc(C(F)(F)F)n2)cc1)C(=O)C(N)=O [Compound 4.26, N′-allyl-N′-[[4-[5-(trifluoromethyl)-1,2,4-oxadiazol-3-yl]phenyl]methyl] oxamide]
≥ 80%: pest or weed control at 200 ppm [1] | pest or weed control at 200 ppm [2] | pest or weed control at 200 ppm [3] | inhibition at 20 ppm [4]
